# Patent US10004748B2, “Methods of treating PR-positive, luminal A breast cancer with PI3K inhibitor, pictilisib” (Genentech, Inc., priority 2014, dated 2018)
# Where “and” joins values, the source holds several entries; their conditions need not be identical. Equal values may be shown once. Read-outs that look alike come from different tables or passages of the source.
# Assays:
# [1] = test system: cytochrome P450 enzymes, including CYP2C8 and CYP3A4/5; experiment: In vitro metabolism studies; assay type: in vitro ADME; settings: preliminary results
# [2] = test system: advanced or metastatic ER+ breast cancer (MBC); settings: for Median PFS / Events (PFS): all arms on fulvestrant; for HR (PFS): GDC-0941 vs placebo, both on fulvestrant
# [3] = for Discontinued GDC-0941/placebo: Non-PD, patients (%): events unrelated to disease progression, all arms on fulvestrant
# [4] = All luminal A/B typed patients (N 74/72)
# [5] = PIK3CA Mutation Status Positive
# [6] = PIK3CA Mutation Status Wild Type
# [7] = PR+ subgroup of PAM50-typed patients (N 50/52)
# [8] = 340 mg dose in combination with fulvestrant
compound,measurement,setting,value
"CS(=O)(=O)N1CCN(Cc2cc3nc(-c4cccc5[nH]ncc45)nc(N4CCOCC4)c3s2)CC1 [GDC-0941, 4-(2-(1H-indazol-4-yl)-6-((4-(methylsulfonyl)piperazin-1-yl)methyl)thieno[3,2-d]pyrimidin-4-yl)morpholine]",in vitro metabolism,[1],"partially metabolized by multiple Phase I cytochrome P450 enzymes, including CYP2C8 and CYP3A4/5"
same,Median PFS,[2]; All Patients (ITT),6.2 Months
same,HR (PFS),[2]; [4],0.81
same,Events (PFS),[2]; [4],33/39
same,Median PFS,[2]; [4],6.18/5.09 months
same,Median PFS,[2]; Baseline ECOG Score 0,6.6 Months
same,Median PFS,[2]; Baseline ECOG Score 1,5.0 Months
same,Median PFS,[2]; Bone Only Non-Measureable Disease at Baseline No,5.0 Months
same,Events (PFS),[2]; LumA (N 46/52),15/27
same,Events (PFS),[2]; LumB (N 28/20),18/12
same,Median PFS,[2]; LumB (N 28/20),3.7 months and 3.71/3.55 months
same,HR (PFS),[2]; LumB,1.05
same,Median PFS,[2]; Measurable Disease at Baseline (Derived) Yes,5.0 Months
same,Median PFS,[2]; Num of Previous Therapies in Metastatic Setting 0,6.6 Months
same,Median PFS,[2]; Num of Previous Therapies in Metastatic Setting 1,6.2 Months
same,Median PFS,[2]; Num of Previous Therapies in Metastatic Setting 3+,3.6 Months
same,Median PFS,[2]; PIK3CA Helical Domain Mutation Status Positive,7.3 Months
same,Median PFS,[2]; PIK3CA Helical Domain Mutation Status Wild Type,6.2 Months
same,Median PFS,[2]; PIK3CA Kinase Domain Mutation Status Positive,6.2 Months
same,Median PFS,[2]; PIK3CA Kinase Domain Mutation Status Wild Type,6.6 Months
same,Median PFS,[2]; [5],6.2 Months
same,Median PFS,[2]; [6],5.8 Months
same,Median PFS,[2]; PR Status Negative,5 Months
same,Median PFS,"[2]; PR Status Negative, listed as GDC0941",5.0 Months
same,Median PFS,[2]; PR Status Positive (n=116),7.2 Months
same,Median PFS,[2]; PR Status Unknown,2.9 Months
same,HR (PFS),[2]; [7],0.47
same,Events (PFS),[2]; [7],19/32
same,Median PFS,[2]; [7],7.16/3.68 months
same,Events (PFS),"[2]; PR+, LumA (N 34/39)",9/25
same,HR (PFS),"[2]; PR+, LumA (n=73)",0.31
same,Events (PFS),"[2]; PR+, LumB (N 16/13)",10/7
same,Median PFS,"[2]; PR+, LumB (N 16/13)",3.91/3.32 months
same,HR (PFS),"[2]; PR+, LumB",0.92
same,Events (PFS),"[2]; PR−, LumA (N 9/7)",3/2
same,HR (PFS),"[2]; PR−, LumA",1.75
same,Median PFS,[2]; Primary Resistance (Derived),5.0 Months
same,Median PFS,[2]; Primary/Secondary Resistance Unknown,1.7 Months
same,Median PFS,[2]; Received Prior Adjuvant/Neo-Adjuvant Therapy No,4.1 Months
same,Median PFS,[2]; Received Prior Adjuvant/Neo-Adjuvant Therapy Yes,7.2 Months
same,Median PFS,[2]; Visceral Disease No,8.2 Months
same,Median PFS,[2]; Visceral Disease Yes,4.1 Months
same,Overall improvement of median PFS vs placebo group,[2]; patients positive for both the estrogen and progesterone receptor,over 15 weeks
same,Patients who experienced a dose modification for an adverse event,[3]; [8],66%
same,Rate of discontinuation for non-PD events,[3]; [8],31%
same,Tolerability,[3]; [8],acceptable tolerability profile
same,"Discontinued GDC-0941/placebo: Non-PD, patients (%)",[3],28 (31%)
same,"Urinary tract infection, All Grades, patients (%)","[3]; human, in vivo",9 (10%)
same,"AST increased, All Grades, patients (%)","[3]; n = 89, with fulvestrant",11 (12%)
same,"AST increased, Grade ≥3, patients (%)","[3]; n = 89, with fulvestrant",3 (3%)
same,"Abdominal pain, All Grades, patients (%)","[3]; n = 89, with fulvestrant",9 (10%)
same,"Abdominal pain, Grade ≥3, patients (%)","[3]; n = 89, with fulvestrant",2 (2%)
same,"Alopecia, All Grades, patients (%)","[3]; n = 89, with fulvestrant",10 (11%)
same,"Arthralgia, All Grades, patients (%)","[3]; n = 89, with fulvestrant",11 (12%)
same,"Constipation, All Grades, patients (%)","[3]; n = 89, with fulvestrant",14 (16%)
same,"Cough, All Grades, patients (%)","[3]; n = 89, with fulvestrant",14 (15%)
same,"Decreased appetite, All Grades, patients (%)","[3]; n = 89, with fulvestrant",20 (23%)
same,"Decreased appetite, Grade ≥3, patients (%)","[3]; n = 89, with fulvestrant",1 (1%)
same,"Diarrhea, All Grades, patients (%)","[3]; n = 89, with fulvestrant",58 (65%)
same,"Diarrhea, Grade ≥3, patients (%)","[3]; n = 89, with fulvestrant",5 (6%)
same,"Discontinued GDC-0941/placebo: Adverse Events, patients (%)","[3]; n = 89, with fulvestrant",16 (18%)
same,"Discontinued fulvestrant for non-PD, patients (%)","[3]; n = 89, with fulvestrant",15 (17%)
same,"Dry skin, All Grades, patients (%)","[3]; n = 89, with fulvestrant",9 (10%)
same,"Dysgeusia, All Grades, patients (%)","[3]; n = 89, with fulvestrant",35 (39%)
same,"Dyspepsia, All Grades, patients (%)","[3]; n = 89, with fulvestrant",10 (11%)
same,"Dyspneoa, All Grades, patients (%)","[3]; n = 89, with fulvestrant",10 (11%)
same,"Fatigue, All Grades, patients (%)","[3]; n = 89, with fulvestrant",36 (40%)
same,"Fatigue, Grade ≥3, patients (%)","[3]; n = 89, with fulvestrant",5 (6%)
same,"Headache, All Grades, patients (%)","[3]; n = 89, with fulvestrant",12 (14%)
same,"Headache, Grade ≥3, patients (%)","[3]; n = 89, with fulvestrant",1 (1%)
same,"Hot flush, All Grades, patients (%)","[3]; n = 89, with fulvestrant",12 (13%)
same,"Hyperglycemia, All Grades, patients (%)","[3]; n = 89, with fulvestrant",16 (18%)
same,"Hyperglycemia, Grade ≥3, patients (%)","[3]; n = 89, with fulvestrant",4 (5%)
same,"Injection site pain, All Grades, patients (%)","[3]; n = 89, with fulvestrant",10 (11%)
same,"Mucosal inflammation, All Grades, patients (%)","[3]; n = 89, with fulvestrant",9 (10%)
same,"Muscle spasms, All Grades, patients (%)","[3]; n = 89, with fulvestrant",10 (11%)
same,"Nausea, All Grades, patients (%)","[3]; n = 89, with fulvestrant",48 (54%)
same,"Nausea, Grade ≥3, patients (%)","[3]; n = 89, with fulvestrant",2 (2%)
same,"Pruritus, All Grades, patients (%)","[3]; n = 89, with fulvestrant",11 (12%)
same,"Pruritus, Grade ≥3, patients (%)","[3]; n = 89, with fulvestrant",1 (1%)
same,"Pyrexia, All Grades, patients (%)","[3]; n = 89, with fulvestrant",12 (13%)
same,"Stomatitis, All Grades, patients (%)","[3]; n = 89, with fulvestrant",16 (18%)
same,"Stomatitis, Grade ≥3, patients (%)","[3]; n = 89, with fulvestrant",2 (2%)
same,"Vomiting, All Grades, patients (%)","[3]; n = 89, with fulvestrant",24 (27%)
same,"Vomiting, Grade ≥3, patients (%)","[3]; n = 89, with fulvestrant",2 (2%)
"C[C@]12CC[C@@H]3c4ccc(O)cc4C[C@@H](CCCCCCCCC[S+]([O-])CCCC(F)(F)C(F)(F)F)[C@H]3[C@@H]1CC[C@@H]2O (stereo partly drawn) [fulvestrant, (7α,17β)-7-{9-[(4,4,5,5,5-pentafluoropentyl)sulfinyl]nonyl}estra-1,3,5(10)-triene-3,17-diol, reference compound]",Median PFS,[2]; All Patients (ITT),3.8 Months
same,Median PFS,[2]; Luminal A subgroup (n=98),5.26 months
same,Median PFS,[2]; [5],5.1 Months
same,Median PFS,[2]; [6],3.6 Months
same,Median PFS,[2]; PR Status Positive (n=116),3.7 Months
same,Median PFS,[2]; PR-positive and Luminal A (n=73),5.7 months
same,Response rate on the basis of local assessment,[2]; all patients,5%
same,Response rate,[2]; patients with PIK3CA-mutant tumors,3%
same,Response rate,[2]; patients without a detectable PIK3CA-mutant tumor,5%
same,"Discontinued GDC-0941/placebo: Non-PD, patients (%)",[3],10 (13%)
